# In patent publication US20220340564A1, “ANTIBACTERIAL COMPOUNDS” (Janssen Sciences Ireland Unlimited Company, priority 2019, published 2022):
# Like-named read-outs stand apart in the source and are kept apart here.
# Columns and labels:
# hERGdof = hERGdof (Homo sapiens, UniProt Q12809); assay: CVS panel, hERGdof; assay type: binding
# [1] = test system: Cyp-450 (cocktail, isoforms not named); assay: Cocktail Cyp-450 inhibition; assay type: in vitro ADME; settings: unit inferred; read-out: Cocktail Cyp-450, IC50
# Excerpt: (§1) The compounds of the invention/examples may have advantages associated with in vitro potency, kill kinetics (i.e. bactericidal effect) in vitro, PK properties, food effect, safety/toxicity (including liver toxicity, coagulation, […]), metabolic stability, Ames II negativity, MNT negativity, aqueous based solubility (and ability to formulate) and/or cardiovascular effect e.g. on animals (e.g. anesthetized guinea pig). The data below that was generated/calculated may be obtained using standard methods/assays, for instance that are available in the literature or which may be performed by a supplier (e.g. Microsomal Stability Assay—Cyprotex, Mitochondrial toxicity (Glu/Gal) assay —Cyprotex, as well as literature CYP cocktail inhibition assays). In some instances, GSH was measured (reactive metabolites, glucuronidation) to observe if a dihydrodiol is observed by LCMS (fragmentation ions), which would correspond to a dihydroxylation on the core heterocycle.
# [2] = test system: Mycobacterium tuberculosis strain EH4.0 expressing green-fluorescent protein (GFP); assay: microbe, parasite or virus in culture; assay type: cell-based; settings: 168 h, read-out: pIC50 (converted)
# [3] = Bioavailability in rodents
# [4] = Microsomal stability CLint (M); settings: mouse, microsomes
# Na Ch = assay: CVS panel, Na channel
# [5] = Mitochondrial toxicity (Glu/Gal) assay; assay type: cell-based
# Excerpt: as §1
# [6] = Microsomal stability CLint (H); settings: human, microsomes
# Ca Ch = assay: CVS panel, Ca channel
# Excerpt: as §1
# in vitro [7] = settings: mouse, microsomes
# [8] = GSH (GSH/CN) reactive metabolite measurement; assay type: in vitro ADME
# Excerpt: as §1
# in vitro [9] = settings: human, microsomes
# hERG = hERG (Homo sapiens, UniProt Q12809); assay: CVS panel, hERGdof; assay type: binding; settings: human
# hERG, sequence (Q12809 whole entry): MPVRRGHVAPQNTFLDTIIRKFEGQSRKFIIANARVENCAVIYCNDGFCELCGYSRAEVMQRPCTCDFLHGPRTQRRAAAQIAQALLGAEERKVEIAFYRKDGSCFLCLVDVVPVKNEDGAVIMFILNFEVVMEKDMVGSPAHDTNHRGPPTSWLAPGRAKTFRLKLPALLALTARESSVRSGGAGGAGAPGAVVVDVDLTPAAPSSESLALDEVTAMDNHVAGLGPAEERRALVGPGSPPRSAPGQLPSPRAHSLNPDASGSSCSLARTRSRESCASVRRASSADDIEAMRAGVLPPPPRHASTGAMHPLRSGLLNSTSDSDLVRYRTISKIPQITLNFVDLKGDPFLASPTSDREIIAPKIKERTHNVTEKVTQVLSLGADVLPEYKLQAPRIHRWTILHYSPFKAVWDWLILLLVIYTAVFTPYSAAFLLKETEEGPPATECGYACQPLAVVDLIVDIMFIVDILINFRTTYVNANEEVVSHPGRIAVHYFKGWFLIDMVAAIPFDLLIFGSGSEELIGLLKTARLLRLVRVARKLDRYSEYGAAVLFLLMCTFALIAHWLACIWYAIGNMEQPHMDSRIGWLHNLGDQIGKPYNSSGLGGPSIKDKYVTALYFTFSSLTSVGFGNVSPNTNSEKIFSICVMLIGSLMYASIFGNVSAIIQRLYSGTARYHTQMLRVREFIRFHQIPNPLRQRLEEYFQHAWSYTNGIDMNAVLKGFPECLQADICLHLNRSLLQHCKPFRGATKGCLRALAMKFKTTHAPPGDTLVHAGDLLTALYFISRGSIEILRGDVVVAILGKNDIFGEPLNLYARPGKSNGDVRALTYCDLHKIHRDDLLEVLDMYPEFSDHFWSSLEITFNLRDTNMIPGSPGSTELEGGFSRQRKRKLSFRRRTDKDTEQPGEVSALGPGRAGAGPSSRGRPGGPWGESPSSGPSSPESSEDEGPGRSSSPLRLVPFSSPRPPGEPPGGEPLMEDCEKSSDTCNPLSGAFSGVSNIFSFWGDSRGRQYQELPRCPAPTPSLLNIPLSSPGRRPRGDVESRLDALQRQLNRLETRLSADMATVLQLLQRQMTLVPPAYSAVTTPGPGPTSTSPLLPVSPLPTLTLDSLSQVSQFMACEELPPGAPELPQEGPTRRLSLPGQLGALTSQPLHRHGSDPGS
# CYP3A4 = CYP3A4 (Homo sapiens, UniProt P08684); assay: Cocktail Cyp-450 inhibition, CYP3A4; assay type: in vitro ADME
# CYP3A4, sequence (P08684 whole entry): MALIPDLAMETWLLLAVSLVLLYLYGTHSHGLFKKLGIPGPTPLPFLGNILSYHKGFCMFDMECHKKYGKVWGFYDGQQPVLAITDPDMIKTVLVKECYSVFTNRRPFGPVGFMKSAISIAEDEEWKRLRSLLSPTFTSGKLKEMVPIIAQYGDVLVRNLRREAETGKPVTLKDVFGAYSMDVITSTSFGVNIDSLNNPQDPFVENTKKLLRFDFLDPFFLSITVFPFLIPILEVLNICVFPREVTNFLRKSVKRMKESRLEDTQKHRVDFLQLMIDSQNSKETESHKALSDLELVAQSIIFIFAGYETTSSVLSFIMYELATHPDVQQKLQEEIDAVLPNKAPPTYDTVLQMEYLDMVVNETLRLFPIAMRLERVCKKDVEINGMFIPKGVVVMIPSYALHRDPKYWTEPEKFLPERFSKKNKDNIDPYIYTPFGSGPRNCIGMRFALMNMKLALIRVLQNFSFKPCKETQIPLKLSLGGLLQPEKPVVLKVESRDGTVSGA
# [10] = in vivo
# hERGdof, sequence (Q12809 whole entry, canonical isoform): as the sequence (Q12809 whole entry) above
smiles,measurement,setting,value
CCc1nc2ccc(Cl)cn2c1C(=O)NCc1ccc(N2CCN(S(=O)(=O)C(F)(F)F)C=N2)cc1 [Compound 1],IC50,hERGdof,> 10000 nM
same,IC50,[1],> 20000 nM
same,IC50,[2],7.08 nM
same,bioavailability (as shown in rodents),[3],good bioavailaibility
same,microsomal CLint,[4],21.5 µL/min/mg
same,IC50,Na Ch,> 10000 nM
same,Glu/Gal assay ratio (mitotoxicity),[5],< 3
same,microsomal CLint,[6],29.6 µL/min/mg
same,IC50,Ca Ch,> 10000 nM
CCc1nc2ccc(Cl)cn2c1C(=O)NCc1ccc(N2CCN(S(=O)(=O)C(F)(F)F)C(OC)=N2)cc1 [Compound 6],microsomal CLint,in vitro [7],49 µL/min/mg
same,IC50,"hERGdof; read-out: CVS hERGdof, IC50",> 10000 nM
same,IC50,[1],> 20000 nM
same,IC50,[2],6.31 nM
same,IC50,Na Ch,> 10000 nM
same,Glu/Gal assay ratio (mitotoxicity),[5],< 3
same,GSH / reactive metabolites,[8],no measure of GSH
same,IC50,Ca Ch,> 10000 nM
same,microsomal CLint,in vitro [9],37.6 µL/min/mg
CCc1nc2ccc(Cl)cn2c1C(=O)NCc1ccc(N2CCN(S(=O)(=O)C(F)(F)F)C=N2)c(F)c1 [Compound 9],IC50,"hERGdof; read-out: CVS hERGdof, IC50",> 10000 nM
same,IC50,[1],> 20000 nM
same,IC50,[2],0.631 nM
same,microsomal CLint,[4],41 µL/min/mg
same,IC50,Na Ch,> 10000 nM
same,microsomal CLint,[6],19 µL/min/mg
same,IC50,Ca Ch,> 10000 nM
CCc1nc2ncc(Cl)cn2c1C(=O)NCc1ccc(N2CCN(S(=O)(=O)C(F)(F)F)C=N2)cc1 [Compound 13],IC50,hERG,7400 nM
same,IC50,[1],> 20000 nM
same,IC50,[2],3.98 nM
same,microsomal CLint,[4],13.3 µL/min/mg
same,IC50,Na Ch,> 10000 nM
same,microsomal CLint,[6],16.3 µL/min/mg
same,IC50,Ca Ch,> 10000 nM
CCc1nc2ccc(Cl)cn2c1C(=O)NCc1ccc(N2CCN(S(=O)(=O)C(F)(F)F)C=N2)cc1F [Compound 16],IC50,"hERGdof; read-out: CVS hERGdof, IC50",> 10000 nM
same,IC50,[1],> 20000 nM
same,IC50,[2],6.31 nM
same,microsomal CLint,[4],18 µL/min/mg
same,IC50,Na Ch,> 10000 nM
same,microsomal CLint,[6],24 µL/min/mg
same,IC50,Ca Ch,> 10000 nM
CCc1nc2ccc(Cl)cn2c1C(=O)NCc1ccc(N2CCN(S(C)(=O)=O)C=N2)cc1 [Compound 20],microsomal CLint,in vitro [7],15.9 µL/min/mg
same,IC50,"hERGdof; read-out: CVS hERGdof, IC50",> 10000 nM
same,IC50,[1],> 20000 nM
same,IC50,[2],31.6 nM
same,IC50,CYP3A4,13200 nM
same,IC50,Na Ch,> 10000 nM
same,IC50,Ca Ch,> 10000 nM
same,microsomal CLint,in vitro [9],56.6 µL/min/mg
CCc1nc2ccc(C#N)cn2c1C(=O)NCc1ccc(N2CCN(S(=O)(=O)C(F)(F)F)C(OC)=N2)c(F)c1 [Compound 73],microsomal CLint,in vitro [7],93 µL/min/mg
same,IC50,"hERGdof; read-out: CVS hERGdof, IC50",> 10000 nM
same,IC50,[1],> 20000 nM
same,IC50,[2],51.3 nM
same,IC50,Na Ch,> 10000 nM
same,GSH / reactive metabolites,[8],no measure of GSH
same,IC50,Ca Ch,> 10000 nM
same,microsomal CLint,in vitro [9],18 µL/min/mg
O=C(NCc1ccc(N2CCN(S(=O)(=O)C(F)(F)F)C=N2)c(F)c1)c1c(C(F)(F)F)nc2ccccn12 [Compound 152],IC50,[2],2 nM
same,Glu/Gal assay ratio (mitotoxicity),[5],< 3
same,bioavailability (as shown in rodents),[10],good bioavailaibility
same,GSH / reactive metabolites,[8],formation of reactive metabolites was blocked
Cc1cc(F)c2nc(C(F)(F)F)c(C(=O)NCc3cnc(N4CCN(S(=O)(=O)C(F)(F)F)C=N4)c(F)c3)n2c1 [Compound 184],IC50,[2],31.6 nM
CCc1nc2cc(C)c(C)cn2c1C(=O)NCc1cnc(N2CCN(S(=O)(=O)C(F)(F)F)C=N2)c(F)c1 [Compound 185],IC50,[2],46.8 nM
O=C(NCc1ccc(N2CCN(S(=O)(=O)C(F)(F)F)C=N2)c(F)c1)c1c(C(F)(F)F)nc2c(F)cccn12 [Compound 186],IC50,[2],3.63 nM
CCc1nc2c(F)cc(C)cn2c1C(=O)NCc1cnc(N2CCNC=N2)c(F)c1 [Compound 187],IC50,[2],≥ 501 nM
CCc1nc2nc(OCc3ccccc3)c(F)cn2c1C(=O)NCc1ccc(N2CCN(S(=O)(=O)C(F)(F)F)C=N2)c(F)c1 [Compound 189],IC50,[2],≥ 501 nM
CCc1nc2cc3c(cn2c1C(=O)NCc1ccc(N2CCN(S(=O)(=O)C(F)(F)F)C=N2)c(F)c1)OCCN3C [Compound 191],IC50,[2],38 nM
O=C(NCc1ccc(N2CCNC=N2)c(F)c1)c1c(C(F)(F)F)nc2ccccn12 [Compound 192],IC50,[2],> 500 nM
CCc1nc2ncc(C)cn2c1C(=O)NCc1ccc(N2CCN(S(=O)(=O)C(F)(F)F)C(OC)=N2)c(F)c1 [Compound 193],IC50,[2],0.891 nM
CCc1nc2c(F)cc(C)cn2c1C(=O)NCc1ccc(N2CCNC=N2)c(F)c1 [Compound 198],IC50,[2],93.3 nM
CCc1nc2nc(C)c(Cl)cn2c1C(=O)NCc1ccc(N2CCNC=N2)c(F)c1 [Compound 199],IC50,[2],> 500 nM
CCc1nc2ncc(C)cn2c1C(=O)NCc1ccc(N2CCN(S(=O)(=O)C(F)(F)F)C(OC)=N2)cc1 [Compound 200],IC50,[2],5.5 nM
CCc1nc2ncc(C)cn2c1C(=O)NCc1cnc(N2CCN(S(=O)(=O)C(F)(F)F)C=N2)c(F)c1 [Compound 201],IC50,[2],12 nM
CCc1nc2cc(F)c(Cl)cn2c1C(=O)NCc1ccc(N2CCNC=N2)c(F)c1 [Compound 202],IC50,[2],389 nM
CCc1nc2ccc(F)cn2c1C(=O)NCc1ccc(N2CCN(S(=O)(=O)C(F)(F)F)C(OC)=N2)c(F)c1 [Compound 204],IC50,[2],4.47 nM
CCc1nc2nc3c(cn2c1C(=O)NCc1ccc(N2CCN(S(=O)(=O)C(F)(F)F)C=N2)c(F)c1)OCCN3C [Compound 205],IC50,[2],66.1 nM
COC1=NN(c2ccc(CNC(=O)c3c(C(F)F)nc4ccc(Cl)cn34)cc2F)CCN1S(=O)(=O)C(F)(F)F [Compound 206],IC50,[2],2.45 nM
CCc1nc2n(ccc3ncnn32)c1C(=O)NCc1ccc(N2CCN(S(=O)(=O)C(F)(F)F)C=N2)c(F)c1 [Compound 207],IC50,[2],186 nM
CCc1nc2ccc(Cl)cn2c1C(=O)NCc1cnc(N2CCN(S(=O)(=O)C(F)(F)F)C=N2)c(C)c1 [Compound 208],IC50,[2],69.2 nM
CCc1nc2cc(Cl)c(C)cn2c1C(=O)NCc1ccc(N2CCN(S(=O)(=O)C(F)(F)F)C(OC)=N2)c(F)c1 [Compound 209],IC50,[2],11.2 nM
CCc1nc2c(F)cc(Cl)cn2c1C(=O)NCc1ccc(N2CCN(S(=O)(=O)C(F)(F)F)C(OC)=N2)c(F)c1 [Compound 210],IC50,[2],3.02 nM
CCc1nc2nc(C)c(C)cn2c1C(=O)NCc1ccc(N2CCN(S(=O)(=O)C(F)(F)F)C(OC)=N2)c(F)c1 [Compound 211],IC50,[2],2.29 nM
CCc1nc2c(N)cc(C)cn2c1C(=O)NCc1ccc(N2CCN(S(=O)(=O)C(F)(F)F)C=N2)c(F)c1 [Compound 212],IC50,[2],25.7 nM
CCc1nc2ccc(Cl)cn2c1C(=O)NCc1ccc(N2CCN(S(=O)(=O)C(F)(F)F)C(C)=N2)c(F)c1 [Compound 213],IC50,[2],3.47 nM
CC1=NN(c2ccc(CNC(=O)c3c(C(F)(F)F)nc4ccccn34)cc2)CCN1S(=O)(=O)C(F)(F)F [Compound 214],IC50,[2],13.5 nM
CCc1nc2ccc(C)cn2c1C(=O)NCc1ccc(N2CCN(S(=O)(=O)C(F)(F)F)C(C)=N2)cc1 [Compound 215],IC50,[2],0.912 nM
CCc1nc2nc3c(cn2c1C(=O)NCc1ccc(N2CCN(S(=O)(=O)C(F)(F)F)C(C)=N2)cc1)CCOC3 [Compound 217],IC50,[2],14.1 nM
